Reference: patent US12697325B2 (TENNOR THERAPEUTICS (SUZHOU) LIMITED, priority 2021, dated 2026)

Tests used:
[1] = system: Acinetobacter baumannii clinical strains; experiment: Information of drug resistance of 10 clinical strains; type: cell-based; set-up: key: S: Drug Susceptible; I: Drug Intermediate; R: Drug Resistant
[2] = system: clinical strains of Acinetobacter baumannii; experiment: Minimum inhibitory concentration (CLSI M07), Example 1, clinical strains; type: cell-based; conditions: combination MIC = sum of the concentrations of the two compounds
Protocol: (§1) The minimum inhibitory concentration (MIC) was determined in accordance with the requirements of the Clinical and Laboratory Standards Institute (CLSI) M07 (for aerobic bacteria).
3.1 The compounds were diluted with water up to 100 times of the highest concentration tested.
The dilution steps are as follows: first dilute the compounds or antibiotics to 100 times of the highest final concentration tested, and then:
A 50 μL of sterile water and 50 μL of avibactam sodium mother liquid were added into the A row of the second 96-well plate, and 50 μL of water was added into each of the remaining wells. A 50 μL of liquid was pipetted from the A row and added into the B row; after being pipetted up and down to even, 50 μL of the solution was pipetted and added to the C row, and diluted in a 2-fold gradient in turn for a total of 6 times and then, 50 μL was removed from each well of the G row to obtain the compound solution diluted to a 2-fold gradient and then 4 μL was transferred to a 96-well test plate.
Aerobic bacteria: the strains were inoculated on MHA one day in advance and incubated overnight at 37° C. On the day of the assay, 5-6 single colonies were picked and suspended evenly in saline, and the bacterial concentration was adjusted to the turbidity of 0.5 McFarland standard (concentration is about 1×10^8 CFU/mL). The bacterial suspension was diluted 200 times with the corresponding liquid culture medium (Table 1), i.e., at a bacterial concentration of ~5×10^5 CFU/ml, then 192 μL was transferred to a 96-well round bottom plate to obtain the test plate. Then, the 96-well round bottom plate obtained above was placed into an incubator at 37° C. and 85% humidity to incubate for 20 h.

[3] = system: Acinetobacter baumannii strains; experiment: Minimum inhibitory concentration (CLSI M07), Example 2, 20 strains; type: cell-based
Protocol: as §1
3.1 The compounds were diluted with DMSO up to 100 times of the highest concentration tested.
The steps of manual dilution are as follows (example): firstly, the compound or antibiotic was diluted to 100 times of the maximum final concentration tested, then 60 μL of compound mother liquor was added to the first column of the 96-well plate, and 30 μL of DMSO was added to each well in the second to the 12th column; 30 μL of the liquid was transferred from the first column to the second column. After being pipetted up and down to even, 30 μL was transferred to the third column, and was diluted in sequence at a 2-fold gradient for a total of 10 times; then 30 μL was removed from each well in the 11th column, then a compound solution diluted at 2-fold gradient was obtained and 1 μL was transferred to a 96-well test plate.
Aerobic bacteria: the strains were inoculated on MHA one day in advance and incubated overnight at 37° C. On the day of the assay, 5-6 single colonies were picked and suspended evenly in saline, and the bacterial concentration was adjusted to the turbidity of 0.5 McFarland standard (concentration is about 1×10^8 CFU/mL). The bacterial suspension was diluted at 200-fold with the corresponding liquid culture medium (Table 1), i.e., the bacterial concentration was ~5×10^5 CFU/ml, and then 100 μL of the liquid was transferred to a 96-well round bottom plate (the 96-well plate with compound prepared in 4.2, Echo method) to obtain the test plate. If the compound was manually diluted, then 99 μL of the solution was transferred into a 96-well round bottom plate. The 96-well round bottom plate obtained above was placed into an incubator at 37° C. and 85% humidity to incubate for 20 h.

[4] = Pharmacokinetics in plasma and bronchoalveolar lavage fluid of female CD-1 mice; type: in vivo; conditions: mouse, in vivo
Protocol: An appropriate amount of the test drug was accurately weighed and mixed with the appropriate volume of vehicle (5% DMSO+0.5% Tween 80 in normal saline) to obtain a clear solution for the test in Table 9. The formulation solution for injection was prepared to sterile filtration through a 0.22 μm filter prior to administration. The mice were dosed with the drug within 30 min after the formulated solution for injection was prepared. A 1.5 mL of the formulation solution for injection was transferred into a polypropylene microcentrifuge tube for dose verification by LC/UV or LC-MS/MS.
All blood samples were transferred to pre-frozen EDTA-K2 tubes and placed on wet ice until centrifugation. […]
Plasma: approximately 100 μL of blood sample was transferred into pre-cooled commercial EDTA-K2 tubes and placed on wet ice until centrifugation. After the blood samples were centrifuged at approximately 4° C. and 3, 200 g for 10 min, plasma was collected and transferred to pre-labeled 96-well plates or polypropylene tubes, flash frozen on dry ice, and stored at ≤−60° C. until the analysis by LC-MS/MS.
Serum: approximately 100 μL of blood sample was transferred into a tube without anticoagulant and placed on wet ice for approximately 30 min and centrifuged at 4° C. and 3,000 g for 10 min, and the serum was collected and transferred into pre-labeled PP tubes placed on wet ice. After the completion of all the collections, serum samples were stored at −60° C. until being sent to the animal experimental team to determine urea concentration.
Bronchoalveolar lavage fluid (BALF): pre-cooled tracheo-alveolar lavage fluid was injected into the trachea or predefined bronchi. After a full expansion of the lung tissue, the lavage fluid was slowly drawn out with a syringe 30 s later. The lung was lavaged three times. During the last lavage, the lung tissue was gently squeezed to restore the fluid. To prevent contamination of other lung tissues, the corresponding bronchi were ligated. Both lungs of the mice were perfused with 0.8 mL.
[…] Approximately 200 μL of the BALF samples were transferred into a polypropylene tube, rapidly frozen on dry ice, maintained at ≤−60° C., and sent to the animal experimental team to determine urea concentration. The remaining BALF samples (approximately 600 μL) were rapidly frozen on dry ice and maintained at ≤−60° C. until being submitted for drug concentration analysis by LC-MS/MS.

For `Cc1nnc(SCC2=C(C(=O)O)N3C(=O)[C@@H](NC(=O)Cn4cnnn4)[C@H]3SC2)s1` [Cefazolin], the Drug resistance ([1]; strain TNP041702) was “R”, the Drug resistance ([1]; strain TNP041703) was “R” and the Drug resistance ([1]; strain TNP041704) was “R”. For the same compound, the Drug resistance ([1]; strain TNP041705) was “R”, the Drug resistance ([1]; strain TNP041706) was “R” and the Drug resistance ([1]; strain TNP041707) was “R”. For the same compound, the Drug resistance ([1]; strain TNP041708) was “R”, the Drug resistance ([1]; strain TNP041709) was “R” and the Drug resistance ([1]; strain TNP041710) was “R”. The Drug resistance ([1]; strain TNP041711) was “R”.

For `CC(C)(O/N=C(\C(=O)N[C@@H]1C(=O)N2C(C(=O)[O-])=C(C[n+]3ccccc3)CS[C@H]12)c1csc(N)n1)C(=O)O` [Ceftazidime], the Drug resistance ([1]; strain TNP041702) was “R”, the Drug resistance ([1]; strain TNP041703) was “R” and the Drug resistance ([1]; strain TNP041704) was “R”. The Drug resistance ([1]; strain TNP041705) was “R”, the Drug resistance ([1]; strain TNP041706) was “R” and the Drug resistance ([1]; strain TNP041707) was “R”. The Drug resistance ([1]; strain TNP041708) was “R”, the Drug resistance ([1]; strain TNP041709) was “R” and the Drug resistance ([1]; strain TNP041710) was “R”. For the same compound, the Drug resistance ([1]; strain TNP041711) was “R”.

For `C[C@@H](O)[C@H]1C(=O)N2C(C(=O)O)=C(S[C@@H]3CN[C@H](C(=O)N(C)C)C3)[C@H](C)[C@H]12` [Meropenem], the Drug resistance ([1]; strain TNP041702) was “R”, the Drug resistance ([1]; strain TNP041703) was “R” and the Drug resistance ([1]; strain TNP041704) was “R”. For the same compound, the Drug resistance ([1]; strain TNP041705) was “R”, the Drug resistance ([1]; strain TNP041706) was “R” and the Drug resistance ([1]; strain TNP041707) was “R”. For the same compound, the Drug resistance ([1]; strain TNP041708) was “R”, the Drug resistance ([1]; strain TNP041709) was “R” and the Drug resistance ([1]; strain TNP041710) was “R”. For the same compound, the Drug resistance ([1]; strain TNP041711) was “R”.

In the case of `NC(=O)[C@@H]1CC[C@@H]2CN1C(=O)N2OS(=O)(=O)[O-].[Na+]` [Avibactam sodium, avibactam sodium], the MIC50 [2] is reported as greater than 32 µg/mL, the MIC90 [2] is reported as greater than 32 µg/mL and the MIC range [2] is reported as greater than 32 µg/mL. It also gave an MIC50 ([3]; Example 2, 20 strains) greater than 128 µg/mL, an MIC90 ([3]; Example 2, 20 strains) greater than 128 µg/mL and an MIC range ([3]; Example 2, 20 strains) greater than 128 µg/mL. For the same compound, the MIC ([3]; strain ARLG-1791) was greater than 128 µg/mL, the MIC ([3]; strain ARLG-1809) was greater than 128 µg/mL and the MIC ([3]; strain ARLG-1852) was greater than 128 µg/mL. For the same compound, the MIC ([3]; strain ARLG-1853) was greater than 128 µg/mL, the MIC ([3]; strain ARLG-1881) was greater than 128 µg/mL and the MIC ([3]; strain ATCC 17978) was greater than 128 µg/mL. The MIC ([3]; strain ATCC 19606) was greater than 128 µg/mL, the MIC ([3]; strain ATCC-BAA-1605) was greater than 128 µg/mL and the MIC ([3]; strain ATCC-BAA-1789) was greater than 128 µg/mL. The MIC ([3]; strain ATCC-BAA-1790) was greater than 128 µg/mL, the MIC ([3]; strain ATCC-BAA-1791) was greater than 128 µg/mL and the MIC ([3]; strain ATCC-BAA-1792) was greater than 128 µg/mL. The MIC ([3]; strain ATCC-BAA-1793) was greater than 128 µg/mL, the MIC ([3]; strain ATCC-BAA-1794) was greater than 128 µg/mL and the MIC ([3]; strain ATCC-BAA-1795) was greater than 128 µg/mL. For the same compound, the MIC ([3]; strain ATCC-BAA-1796) was greater than 128 µg/mL, the MIC ([3]; strain ATCC-BAA-1797) was greater than 128 µg/mL and the MIC ([3]; strain ATCC-BAA-1798) was greater than 128 µg/mL. The MIC ([3]; strain ATCC-BAA-1799) was greater than 128 µg/mL, the MIC ([3]; strain ATCC-BAA-1800) was greater than 128 µg/mL and the “MIC of the strain BAA-1795 (component in the combination)” value ([3]; strain BAA-1795, sulbactam/avibactam 4:1, concentration of the named component) was 2 µg/mL. For the same compound, the “AUC Ratio” value [4] was 0.0257, the “Part of the dosing interval with free plasma concentration above the MIC of strain BAA-1795” value [4] was “more than 50%” and the “Part of the dosing interval with plasma concentration above the MIC of strain BAA-1795” value [4] was “more than 50%”. For the same compound, the “AUC0-last, BALF” value ([4]; iv, 150 mg/kg) was 1319 ng·h/mL, the “AUC0-last, plasma” value ([4]; iv, 150 mg/kg) was 51289 ng·h/mL and the Cl ([4]; iv, 150 mg/kg) was 48.7 mL/min/kg. The “MRT0-last, BALF” value ([4]; iv, 150 mg/kg) was 103 min, the “MRT0-last, plasma” value ([4]; iv, 150 mg/kg) was 26.3 min and the “T1/2, BALF” value ([4]; iv, 150 mg/kg) was 45.7 min. The “T1/2, plasma” value ([4]; iv, 150 mg/kg) was 73.8 min.

In the case of `CO/N=C(\C(=O)N[C@@H]1C(=O)N2C(C(=O)O)=C(COC(N)=O)CS[C@H]12)c1ccco1` [Cefuroxime], the Drug resistance ([1]; strain TNP041702) is reported as “R”, the Drug resistance ([1]; strain TNP041703) is reported as “R” and the Drug resistance ([1]; strain TNP041704) is reported as “R”. The Drug resistance ([1]; strain TNP041705) was “R”, the Drug resistance ([1]; strain TNP041706) was “R” and the Drug resistance ([1]; strain TNP041707) was “R”. The Drug resistance ([1]; strain TNP041708) was “R”, the Drug resistance ([1]; strain TNP041709) was “R” and the Drug resistance ([1]; strain TNP041710) was “R”. For the same compound, the Drug resistance ([1]; strain TNP041711) was “R”.
